Source: US11591323B2, “Muscarinic agonists as non-steroidal and non-opioid analgesics and methods of use thereof” (Barry University, priority 2019, dated 2023)

Columns and labels:
Parameters in all cases: host or cells: CHO cells, stably transfected
[1] = molecular target: T1, M1 muscarinic receptor (Homo sapiens, UniProt P11229); experiment: [3H]NMS competition binding, M1 CHO membranes; conditions: competition with 1 nM [3H]NMS; read-out: Inhibition constants (Ki) as negative logarithms, M1 (converted)
T1 sequence (P11229 1-460): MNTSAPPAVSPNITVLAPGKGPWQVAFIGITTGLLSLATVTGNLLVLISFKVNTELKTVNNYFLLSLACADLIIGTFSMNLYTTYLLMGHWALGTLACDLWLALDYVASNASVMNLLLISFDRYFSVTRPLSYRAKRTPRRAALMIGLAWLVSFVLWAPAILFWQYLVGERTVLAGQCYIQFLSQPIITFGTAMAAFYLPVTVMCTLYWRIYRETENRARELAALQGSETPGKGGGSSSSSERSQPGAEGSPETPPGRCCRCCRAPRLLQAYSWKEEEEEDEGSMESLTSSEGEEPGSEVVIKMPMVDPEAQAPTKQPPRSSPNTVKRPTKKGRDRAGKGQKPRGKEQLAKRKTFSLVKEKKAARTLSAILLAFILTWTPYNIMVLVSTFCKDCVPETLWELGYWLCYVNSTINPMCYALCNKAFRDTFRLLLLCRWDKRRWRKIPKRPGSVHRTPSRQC

[2] = molecular target: T1, M1 muscarinic receptor; experiment: accumulation of inositol phosphates IPX, M1 CHO cells (M1Gq); format: cell-based; conditions: M1 (↑IPX), preferential response, relative to carbachol; Tables 2, 3, 7
[3] = molecular target: T2, M3 muscarinic receptor (Homo sapiens, UniProt P20309); experiment: accumulation of IPX, M3 CHO cells (M3Gq); format: cell-based; conditions: M3 (↑IPX), preferential response, relative to carbachol; Tables 2, 3, 7
[4] = molecular target: T3, M2 muscarinic receptor (Homo sapiens, UniProt P08172); experiment: [3H]NMS competition binding, M2 CHO membranes; conditions: competition with 1 nM [3H]NMS; read-out: Inhibition constants (Ki) as negative logarithms, M2 (converted)
T3 sequence (P08172 1-466): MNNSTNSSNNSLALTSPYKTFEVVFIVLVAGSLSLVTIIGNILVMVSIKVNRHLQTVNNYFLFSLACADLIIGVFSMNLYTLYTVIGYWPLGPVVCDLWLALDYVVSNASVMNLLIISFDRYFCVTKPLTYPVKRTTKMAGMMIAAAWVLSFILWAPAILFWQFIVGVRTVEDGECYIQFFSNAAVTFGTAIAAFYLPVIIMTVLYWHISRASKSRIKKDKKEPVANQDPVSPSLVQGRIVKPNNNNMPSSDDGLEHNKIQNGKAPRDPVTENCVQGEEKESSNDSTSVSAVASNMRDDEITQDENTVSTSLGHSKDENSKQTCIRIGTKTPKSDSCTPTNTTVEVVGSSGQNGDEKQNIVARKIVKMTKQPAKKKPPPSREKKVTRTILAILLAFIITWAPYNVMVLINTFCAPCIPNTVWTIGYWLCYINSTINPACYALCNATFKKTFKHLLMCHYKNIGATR

[5] = molecular target: T4, M5 muscarinic receptor (Homo sapiens, UniProt P08912); experiment: [3H]NMS competition binding, M5 CHO membranes; conditions: competition with 1 nM [3H]NMS; read-out: Inhibition constants (Ki) as negative logarithms, M5 (converted)
T4 sequence (P08912 1-532): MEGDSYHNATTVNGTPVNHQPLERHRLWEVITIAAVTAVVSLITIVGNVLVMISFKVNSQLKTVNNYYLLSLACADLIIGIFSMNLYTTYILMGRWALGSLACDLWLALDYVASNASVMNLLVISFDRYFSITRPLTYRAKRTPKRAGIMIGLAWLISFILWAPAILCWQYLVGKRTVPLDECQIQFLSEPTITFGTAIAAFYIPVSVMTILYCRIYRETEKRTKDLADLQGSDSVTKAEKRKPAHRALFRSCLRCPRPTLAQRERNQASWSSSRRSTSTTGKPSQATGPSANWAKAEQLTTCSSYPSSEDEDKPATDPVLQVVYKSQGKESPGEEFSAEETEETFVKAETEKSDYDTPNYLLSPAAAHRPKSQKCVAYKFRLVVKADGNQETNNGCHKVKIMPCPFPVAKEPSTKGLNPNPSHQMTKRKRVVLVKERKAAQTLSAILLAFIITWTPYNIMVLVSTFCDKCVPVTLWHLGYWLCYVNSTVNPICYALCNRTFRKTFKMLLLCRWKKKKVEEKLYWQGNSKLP

[6] = molecular target: T4, M5 muscarinic receptor; experiment: accumulation of IPX, M5 CHO cells (M5Gq); format: cell-based; conditions: M5 (↑IPX), preferential response, relative to carbachol; Tables 2, 3, 7
[7] = molecular target: T3, M2 muscarinic receptor; experiment: inhibition of forskolin-stimulated cAMP, M2 CHO cells (M2Gi); format: cell-based; conditions: M2 (↓cAMP), preferential response, relative to carbachol; Tables 2, 3, 7
[8] = molecular target: T2, M3 muscarinic receptor; experiment: [3H]NMS competition binding, M3 CHO membranes; conditions: competition with 1 nM [3H]NMS; read-out: Inhibition constants (Ki) as negative logarithms, M3 (converted)
[9] = molecular target: T5, M4 muscarinic receptor (Homo sapiens, UniProt P08173); experiment: inhibition of forskolin-stimulated cAMP, M4 CHO cells (M4Gi); format: cell-based; conditions: M4 (↓cAMP), preferential response, relative to carbachol; Tables 2, 3, 7
T5 sequence (P08173 1-479): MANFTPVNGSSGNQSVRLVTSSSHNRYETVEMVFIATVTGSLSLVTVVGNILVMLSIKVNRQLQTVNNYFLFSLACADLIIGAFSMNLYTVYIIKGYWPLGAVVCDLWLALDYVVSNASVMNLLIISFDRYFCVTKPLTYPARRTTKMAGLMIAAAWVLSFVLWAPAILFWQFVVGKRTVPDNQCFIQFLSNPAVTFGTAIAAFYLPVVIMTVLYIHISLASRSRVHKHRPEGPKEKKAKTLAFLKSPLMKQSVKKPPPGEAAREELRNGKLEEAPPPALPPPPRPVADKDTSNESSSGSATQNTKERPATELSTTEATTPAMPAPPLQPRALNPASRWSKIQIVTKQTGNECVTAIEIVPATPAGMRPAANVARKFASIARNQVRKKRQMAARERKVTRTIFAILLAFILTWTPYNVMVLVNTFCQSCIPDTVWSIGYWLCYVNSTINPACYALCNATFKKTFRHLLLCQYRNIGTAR

[10] = molecular target: T5, M4 muscarinic receptor; experiment: [3H]NMS competition binding, M4 CHO membranes; conditions: competition with 1 nM [3H]NMS; read-out: Inhibition constants (Ki) as negative logarithms, M4 (converted)

T2 sequence (P20309 whole entry): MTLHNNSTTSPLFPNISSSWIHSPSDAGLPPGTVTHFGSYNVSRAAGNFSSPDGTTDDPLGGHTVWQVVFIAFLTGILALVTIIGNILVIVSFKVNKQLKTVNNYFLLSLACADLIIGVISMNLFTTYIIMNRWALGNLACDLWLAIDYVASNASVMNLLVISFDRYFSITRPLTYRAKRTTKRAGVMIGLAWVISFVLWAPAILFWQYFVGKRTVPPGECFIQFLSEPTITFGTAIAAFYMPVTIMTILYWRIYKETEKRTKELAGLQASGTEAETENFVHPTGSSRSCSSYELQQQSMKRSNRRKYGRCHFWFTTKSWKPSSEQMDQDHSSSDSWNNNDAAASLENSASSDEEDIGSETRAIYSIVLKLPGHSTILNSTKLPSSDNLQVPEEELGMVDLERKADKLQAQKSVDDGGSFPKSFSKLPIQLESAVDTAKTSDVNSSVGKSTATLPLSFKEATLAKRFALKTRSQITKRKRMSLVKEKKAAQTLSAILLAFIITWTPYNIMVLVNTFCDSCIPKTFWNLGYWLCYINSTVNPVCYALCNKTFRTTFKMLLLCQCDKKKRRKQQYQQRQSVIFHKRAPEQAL

Ki [1]: 31.6 µM
RAi [2]: 0
RAi [3]: 0
Ki [4]: 12.6 µM
Ki [5]: 31.6 µM
RAi [6]: 0
RAi [7]: 0
Ki [8]: 50.1 µM
RAi [9]: 0
Ki [10]: 31.6 µM
Structure (SMILES): Cc1csc(CN2CC=CCC2)c1.Cl [Compound 6E, 1-[(4-methylthiophen-2-yl)methyl]-1,2,3,6-tetrahydropyridin-1-ium chloride]
